Assay results taken from patent publication US8686044B2, “Amide derivative, pest control agent containing the amide derivative, and use of the amide derivative” (Mitsui Chemicals Agro, Inc., priority 2008, dated 2014).

Experiments:
Format in all cases: in vivo
[1] = tested on: Laodelphax striatellus; assay: Pesticidal test against Laodelphax striatellus (rice seedling spray); conditions: 144 h, concentration 100 ppm, 3-stage larvae, examined after 6 days, 25° C., read-out: pesticidal rate
Summary of the method: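 Rice seedlings sprayed with 2.5 ml acetone solution of compound at a predetermined concentration, air-dried, then infested with third-stage Laodelphax striatellus larvae in capped water-containing tubes at 25 °C. Living and dead insects counted after 6 days; ten larvae per group, two replicates.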

[2] = tested on: Rhipicephalus sanguineus; assay: Insecticidal test for Rhipicephalus sanguineus (treated glass petri dish, Table A6); conditions: adults of Rhipicephalus sanguineus, 18 hour exposure, examined after 48 hours, in single
Description: Insecticidal Test for Rhipicephalus sanguineus
0.5 ml of a solution of acetone, the active ingredient, prepared to the prescribed dose was added dropwise into a glass petri dish with a diameter of 10 cm, and the acetone was evaporated at room temperature. About 10 adults of Rhipicephalus sanguineus per dish were added, and the dish was covered by another glass petri dish that was treated with the active ingredient in the same manner described above. After 18 hour exposure to the test substance, the adults were transferred into a glass petri dish that was not treated with the active ingredient. After 48 hours of the exposure, the conditions of the adults were examined and classified into “alive” and “dead (including a moribund condition)” to determine the death rate (in single).
As the comparative compounds, said Compounds (B), (C), and (D), and the following Compound (F) disclosed in WO2009/080203, and fipronil were used.

[3] = tested on: Spodoptera litura; assay: Pesticidal test against Spodoptera litura (cabbage leaf dip); conditions: foliar, 144 h, concentration 1 ppm, 2-stage larvae, examined after 6 days, 25° C., read-out: pesticidal rate
Summary of the method: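 Cabbage leaf pieces dipped 30 seconds in compound solution at a predetermined concentration and air-dried, then offered to second-stage larvae, five per group in two replicates. Held at 25° C. Living and dead larvae counted after 6 days.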

[4] = tested on: Blattella germanica; assay: Pesticidal test against Blattella germanica (petri dish dry film); conditions: 24 h, concentration 100 ppm, female adults, examined after 1 day, 25° C., read-out: pesticidal rate
Summary of the method: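 Acetone solution of test compound at a predetermined concentration dried as a film in a 9 cm petri dish; female adult cockroaches released onto it and kept at 25° C. Living and dead counted after 1 day; five insects per group, two replicates.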

[5] = tested on: Coptotermes formosanus; assay: Pesticidal test against Coptotermes formosanus (treated filter paper); conditions: 120 h, concentration 30 ppm, examined after 5 days of treatment, 28° C., read-out: pesticidal rate
Description: Pesticidal Test against Coptotermes formosanus
20 μl of an acetone solution in which a test compound had been prepared at a predetermined concentration was added dropwise to the filter paper having a diameter of […] included in a polypropylene cup, and air-dried, and then 20 μl of water was added thereto. Coptotermes formosanus was released and the cup was capped. They were left to stand in a thermostatic chamber at 28° C., and the numbers of the living pests and the dead pests were examined after 5 days of treatment. The test was carried out with ten larvae per group in two replicates.

[6] = tested on: Musca domestica; assay: Pesticidal test against Musca domestica (petri dish dry film); conditions: 24 h, concentration 100 ppm, female adults, examined after 1 day, 25° C., read-out: pesticidal rate
Summary of the method: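 Dry film from 1 ml acetone solution of compound at a predetermined concentration, air-dried in a 9 cm petri dish; female adult flies released and dish capped. Held at 25° C; living and dead counted after 1 day. Five insects per group, two replicates.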

[7] = tested on: Helicoverpa armigera; assay: Pesticidal test against Helicoverpa armigera (cabbage leaf disk dip); conditions: foliar, 72 h, concentration 1 ppm, 2-stage larvae, examined after 3 days, 25° C., read-out: pesticidal rate
Summary of the method: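 Cabbage leaf disks were dipped for 30 s in test solution at a set concentration and air-dried. Second-instar larvae were placed one per hole and held at 25 °C, with live and dead counts taken after 3 days. Five larvae per group were tested in two replicates.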

[8] = tested on: Choristoneura magnanima; assay: Pesticidal test against Choristoneura magnanima (artificial feed dip); conditions: 144 h, concentration 1 ppm, 2-stage larvae, examined after 6 days, 25° C., read-out: pesticidal rate
Summary of the method: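 Thin artificial feed slices dipped 30 s in compound solution at a set concentration, air-dried, then offered to 2nd-stage larvae held at 25° C. Living and dead larvae counted after 6 days; five larvae per group, two replicates.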

[9] = tested on: Adoxophyes honmai; assay: Pesticidal test against Adoxophyes honmai (artificial feed dip); conditions: 144 h, concentration 1 ppm, 2-stage larvae, examined after 6 days, 25° C., read-out: pesticidal rate
Summary of the method: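 Thin artificial feed slices dipped 30 s in test solution at a predetermined concentration, air-dried, then offered to 2nd-stage larvae. Kept at 25° C; live and dead larvae counted after 6 days. Five larvae per group, two replicates.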

Structure (SMILES) | pest or weed control at 100 ppm [1] | death rate ([2]; 0.0431 mg/m^2) | death rate ([2]; 0.0861 mg/m^2) | death rate ([2]; 0.172 mg/m^2) | pest or weed control at 1 ppm [3] | pest or weed control at 100 ppm [4] | pest or weed control at 30 ppm [5] | pest or weed control at 100 ppm [6] | pest or weed control at 1 ppm [7] | pest or weed control at 1 ppm [8] | pest or weed control at 1 ppm [9]
CN(C(=O)c1ccc(F)cc1)c1cccc(C(=O)Nc2c(I)cc(C(F)(C(F)(F)F)C(F)(F)F)cc2C(F)(F)F)c1F [7-1733, 2-fluoro-3-(4-fluoro-N-methylbenzamide)-N-(2-iodo-4-(perfluoropropan-2-yl)-6-(trifluoromethyl)phenyl)benzamide] | ≥ 70% | 0.0% | 80.0% | 100.0% | ≥ 70% | ≥ 70% | ≥ 70% | ≥ 70% | ≥ 70% | ≥ 70% | ≥ 70%
CN(C(=O)c1ccccc1)c1cccc(C(=O)Nc2c(Br)cc(C(F)(C(F)(F)F)C(F)(F)F)cc2C(F)(F)F)c1F [7-1574, N-(2-bromo-4-(perfluoropropan-2-yl)-6-(trifluoromethyl)phenyl)-2-fluoro-3-(N-methylbenzamide)benzamide] | ≥ 70% | 10.0% | 100.0% | 100.0% | ≥ 70% | ≥ 70% | ≥ 70% | ≥ 70% | ≥ 70% | ≥ 70% | ≥ 70%
